Data: paper doi:10.1101/2025.01.28.635346v1 (bioRxiv, 2025)
Bridge positions count the residues as written; N and C are the ends. Side chains are listed from the residue outwards. Peptide text beside a SMILES is read from it. * marks the point of attachment. Butanoyl(4-(4-I-phenyl)) = O=C(CCCc1ccc(I)cc1)*; PEG2 = NCCOCCOCCC(=O)O

Legend:
[1] = biological target: T1, EDNRA (Homo sapiens, UniProt P25101); test: Safetyscan47 GPCR Calcium Flux, Agonist; format: cell-based
T1 sequence (P25101 21-427): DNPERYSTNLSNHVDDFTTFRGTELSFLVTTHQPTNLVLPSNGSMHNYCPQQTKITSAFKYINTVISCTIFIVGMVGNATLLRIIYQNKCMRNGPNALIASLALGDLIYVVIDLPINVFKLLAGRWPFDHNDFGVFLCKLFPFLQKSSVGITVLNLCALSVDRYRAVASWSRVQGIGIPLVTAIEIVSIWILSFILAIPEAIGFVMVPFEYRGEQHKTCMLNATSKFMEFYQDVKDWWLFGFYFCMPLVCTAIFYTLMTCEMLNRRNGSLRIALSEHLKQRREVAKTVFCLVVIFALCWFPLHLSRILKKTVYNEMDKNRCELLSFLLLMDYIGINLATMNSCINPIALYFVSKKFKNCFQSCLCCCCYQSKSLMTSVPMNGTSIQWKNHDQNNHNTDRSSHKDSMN

[2] = Hepatocyte stability, cryopreserved human hepatocytes; format: in vitro ADME
[3] = biological target: HTR2B (Homo sapiens, UniProt P41595); test: Safetyscan47 GPCR Calcium Flux, Antagonist; format: cell-based
Chain of HTR2B (P41595 whole entry): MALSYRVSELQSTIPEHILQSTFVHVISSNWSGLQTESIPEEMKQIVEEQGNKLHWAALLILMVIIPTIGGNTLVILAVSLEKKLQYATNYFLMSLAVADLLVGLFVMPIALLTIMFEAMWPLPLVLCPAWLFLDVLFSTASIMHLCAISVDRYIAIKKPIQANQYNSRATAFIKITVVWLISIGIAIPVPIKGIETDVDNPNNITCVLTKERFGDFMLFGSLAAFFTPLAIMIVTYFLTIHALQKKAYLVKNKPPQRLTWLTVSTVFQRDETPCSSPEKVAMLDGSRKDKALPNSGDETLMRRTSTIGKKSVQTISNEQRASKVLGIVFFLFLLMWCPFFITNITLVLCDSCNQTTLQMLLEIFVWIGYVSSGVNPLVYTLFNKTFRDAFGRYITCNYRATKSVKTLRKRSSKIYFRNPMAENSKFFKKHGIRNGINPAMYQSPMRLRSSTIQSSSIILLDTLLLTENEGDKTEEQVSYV

[4] = biological target: VEGFR2 (Homo sapiens, UniProt P35968); test: Safetyscan47 Kinases Binding, Inhibitor
Chain of VEGFR2 (P35968 20-1356): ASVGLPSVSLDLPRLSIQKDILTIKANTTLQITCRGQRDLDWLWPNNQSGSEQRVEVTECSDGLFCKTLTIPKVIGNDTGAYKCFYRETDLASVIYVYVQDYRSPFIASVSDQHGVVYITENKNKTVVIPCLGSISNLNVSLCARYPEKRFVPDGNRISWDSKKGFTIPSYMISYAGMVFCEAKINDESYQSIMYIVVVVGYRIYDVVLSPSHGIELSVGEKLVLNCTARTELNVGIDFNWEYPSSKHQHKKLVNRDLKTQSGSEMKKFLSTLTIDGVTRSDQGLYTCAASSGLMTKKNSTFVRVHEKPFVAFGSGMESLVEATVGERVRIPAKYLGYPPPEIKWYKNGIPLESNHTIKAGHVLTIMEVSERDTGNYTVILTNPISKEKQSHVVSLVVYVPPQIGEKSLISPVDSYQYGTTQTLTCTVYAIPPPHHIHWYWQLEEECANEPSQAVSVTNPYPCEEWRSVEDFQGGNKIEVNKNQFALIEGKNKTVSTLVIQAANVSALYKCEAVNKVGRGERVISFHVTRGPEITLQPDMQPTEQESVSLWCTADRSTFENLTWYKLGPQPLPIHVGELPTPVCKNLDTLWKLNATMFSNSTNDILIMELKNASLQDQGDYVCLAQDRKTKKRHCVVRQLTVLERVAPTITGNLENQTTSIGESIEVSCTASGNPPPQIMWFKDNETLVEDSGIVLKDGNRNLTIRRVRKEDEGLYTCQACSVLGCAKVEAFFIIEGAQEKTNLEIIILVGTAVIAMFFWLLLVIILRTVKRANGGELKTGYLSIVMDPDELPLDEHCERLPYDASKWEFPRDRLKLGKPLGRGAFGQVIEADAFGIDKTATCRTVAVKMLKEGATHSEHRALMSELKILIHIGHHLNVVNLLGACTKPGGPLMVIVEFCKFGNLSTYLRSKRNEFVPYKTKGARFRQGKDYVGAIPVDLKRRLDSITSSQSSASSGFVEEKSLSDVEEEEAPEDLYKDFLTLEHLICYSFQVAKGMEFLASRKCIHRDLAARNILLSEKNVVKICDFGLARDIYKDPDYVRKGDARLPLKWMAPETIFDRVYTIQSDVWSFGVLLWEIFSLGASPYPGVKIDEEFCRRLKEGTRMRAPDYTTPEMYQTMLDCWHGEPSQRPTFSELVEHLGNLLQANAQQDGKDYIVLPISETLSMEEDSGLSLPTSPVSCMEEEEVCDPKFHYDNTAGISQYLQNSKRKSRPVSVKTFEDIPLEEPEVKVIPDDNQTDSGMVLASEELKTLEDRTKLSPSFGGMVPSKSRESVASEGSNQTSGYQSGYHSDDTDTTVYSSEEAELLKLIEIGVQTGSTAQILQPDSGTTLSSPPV

[5] = biological target: NMDAR (1A/2B) (Homo sapiens, UniProt Q05586+Q13224); test: Safetyscan47 Ion Channel, Opener; format: cell-based
Chain of NMDAR (1A/2B) (Q13224 27-1484, other chains not shown): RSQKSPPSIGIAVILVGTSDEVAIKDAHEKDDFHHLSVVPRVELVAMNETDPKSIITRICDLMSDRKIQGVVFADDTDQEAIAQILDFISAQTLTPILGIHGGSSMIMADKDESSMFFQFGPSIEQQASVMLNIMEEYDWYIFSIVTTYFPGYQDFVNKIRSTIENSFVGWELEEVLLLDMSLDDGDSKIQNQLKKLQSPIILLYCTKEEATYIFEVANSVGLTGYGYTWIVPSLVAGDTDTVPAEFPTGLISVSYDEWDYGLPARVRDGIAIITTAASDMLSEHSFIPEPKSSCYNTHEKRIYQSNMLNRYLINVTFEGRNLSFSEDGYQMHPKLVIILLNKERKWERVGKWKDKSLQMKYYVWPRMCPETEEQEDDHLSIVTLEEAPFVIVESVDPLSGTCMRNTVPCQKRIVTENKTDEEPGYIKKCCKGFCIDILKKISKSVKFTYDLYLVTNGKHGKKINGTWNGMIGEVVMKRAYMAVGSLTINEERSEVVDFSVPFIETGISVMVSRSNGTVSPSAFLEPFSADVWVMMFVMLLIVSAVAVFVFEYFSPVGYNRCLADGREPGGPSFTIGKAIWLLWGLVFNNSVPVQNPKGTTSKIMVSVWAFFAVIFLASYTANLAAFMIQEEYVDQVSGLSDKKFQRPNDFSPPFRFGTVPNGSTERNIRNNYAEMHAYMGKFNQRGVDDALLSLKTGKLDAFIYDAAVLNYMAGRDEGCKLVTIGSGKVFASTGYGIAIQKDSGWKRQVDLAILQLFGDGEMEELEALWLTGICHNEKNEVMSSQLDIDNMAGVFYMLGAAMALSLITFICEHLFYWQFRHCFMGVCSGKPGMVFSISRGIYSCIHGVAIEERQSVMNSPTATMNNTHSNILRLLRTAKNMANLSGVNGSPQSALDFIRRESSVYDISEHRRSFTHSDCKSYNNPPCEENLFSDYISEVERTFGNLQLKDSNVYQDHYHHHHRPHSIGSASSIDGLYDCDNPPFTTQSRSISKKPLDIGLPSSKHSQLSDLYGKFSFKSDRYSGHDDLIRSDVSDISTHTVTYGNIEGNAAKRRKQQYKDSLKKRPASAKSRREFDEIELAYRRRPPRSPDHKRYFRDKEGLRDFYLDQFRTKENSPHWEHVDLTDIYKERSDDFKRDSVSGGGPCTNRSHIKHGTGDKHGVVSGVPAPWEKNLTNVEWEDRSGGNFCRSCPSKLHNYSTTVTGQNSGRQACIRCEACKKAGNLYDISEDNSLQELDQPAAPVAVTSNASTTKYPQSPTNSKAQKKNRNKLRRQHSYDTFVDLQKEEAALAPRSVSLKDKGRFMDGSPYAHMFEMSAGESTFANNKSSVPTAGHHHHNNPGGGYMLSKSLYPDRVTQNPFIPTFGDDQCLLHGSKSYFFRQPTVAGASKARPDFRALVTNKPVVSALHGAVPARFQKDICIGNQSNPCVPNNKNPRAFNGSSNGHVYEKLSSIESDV

[6] = Pharmacokinetics in female Balb/c mice; format: in vivo, mouse
[7] = biological target: CNR2 (Homo sapiens, UniProt P34972); test: Safetyscan47 GPCR cAMP, Agonist; format: cell-based
Chain of CNR2 (P34972 whole entry): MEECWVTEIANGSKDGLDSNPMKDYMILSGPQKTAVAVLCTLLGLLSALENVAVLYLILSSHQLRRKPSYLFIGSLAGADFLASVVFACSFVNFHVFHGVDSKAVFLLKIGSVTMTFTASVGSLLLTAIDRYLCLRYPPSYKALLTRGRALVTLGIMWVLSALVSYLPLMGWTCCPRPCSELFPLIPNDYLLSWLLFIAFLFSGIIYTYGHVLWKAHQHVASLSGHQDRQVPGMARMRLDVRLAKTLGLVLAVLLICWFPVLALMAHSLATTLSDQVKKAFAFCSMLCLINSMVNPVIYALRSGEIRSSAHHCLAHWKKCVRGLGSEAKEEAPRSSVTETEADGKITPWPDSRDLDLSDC

[8] = biological target: HRH2 (Homo sapiens, UniProt P25021); test: Safetyscan47 GPCR cAMP, Antagonist; format: cell-based
Chain of HRH2 (P25021 whole entry): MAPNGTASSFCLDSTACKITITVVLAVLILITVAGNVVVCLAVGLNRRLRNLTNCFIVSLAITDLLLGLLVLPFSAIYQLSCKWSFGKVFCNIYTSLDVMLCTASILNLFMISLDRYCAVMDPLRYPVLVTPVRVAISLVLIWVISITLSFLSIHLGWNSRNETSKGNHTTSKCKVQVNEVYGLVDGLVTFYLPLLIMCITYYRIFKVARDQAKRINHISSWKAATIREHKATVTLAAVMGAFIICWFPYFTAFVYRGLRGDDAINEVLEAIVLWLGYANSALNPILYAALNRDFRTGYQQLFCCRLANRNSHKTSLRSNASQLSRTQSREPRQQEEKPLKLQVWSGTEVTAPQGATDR

[9] = biological target: CHRM3 (Homo sapiens, UniProt P20309); test: Safetyscan47 GPCR Calcium Flux, Agonist; format: cell-based
Chain of CHRM3 (P20309 whole entry): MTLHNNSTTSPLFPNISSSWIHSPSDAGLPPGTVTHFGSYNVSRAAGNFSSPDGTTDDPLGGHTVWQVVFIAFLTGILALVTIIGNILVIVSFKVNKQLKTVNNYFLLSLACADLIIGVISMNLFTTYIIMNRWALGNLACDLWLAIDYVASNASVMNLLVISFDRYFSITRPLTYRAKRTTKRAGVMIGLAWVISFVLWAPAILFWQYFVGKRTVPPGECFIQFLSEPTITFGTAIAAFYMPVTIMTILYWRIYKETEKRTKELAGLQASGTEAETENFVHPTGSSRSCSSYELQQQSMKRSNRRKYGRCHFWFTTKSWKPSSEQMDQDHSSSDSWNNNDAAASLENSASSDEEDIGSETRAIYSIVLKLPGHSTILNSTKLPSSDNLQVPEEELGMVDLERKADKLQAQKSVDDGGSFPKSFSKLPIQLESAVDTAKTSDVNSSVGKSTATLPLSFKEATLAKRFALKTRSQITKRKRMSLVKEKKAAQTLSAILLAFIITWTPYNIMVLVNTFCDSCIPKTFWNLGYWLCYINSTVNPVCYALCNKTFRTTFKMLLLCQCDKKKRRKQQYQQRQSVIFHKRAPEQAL

[10] = Table S3B, IP 30 mg/kg, mouse, animal 2F001
[11] = Table S3B, IP 30 mg/kg, mouse, animal 2F002
[12] = Table S3B, IP 30 mg/kg, mouse, animal 2F003
[13] = Table S3B, IP 30 mg/kg, mouse, animal 2F004
[14] = Table S3B, IP 30 mg/kg, mouse, animal 2F005
[15] = Table S3B: IP 30 mg/kg, Mean N=5
[16] = Table S3D, IP 10 mg/kg, mouse, animal 1F001
[17] = Table S3D, IP 10 mg/kg, mouse, animal 1F002
[18] = Table S3D, IP 10 mg/kg, mouse, animal 1F003
[19] = Table S3D, IP 10 mg/kg, mouse, animal 1F004
[20] = Table S3D, IP 10 mg/kg, mouse, animal 1F005
[21] = Table S3D, SC 10 mg/kg, mouse, animal 2F001
[22] = Table S3D, SC 10 mg/kg, mouse, animal 2F002
[23] = Table S3D, SC 10 mg/kg, mouse, animal 2F003
[24] = Table S3D, SC 10 mg/kg, mouse, animal 2F004
[25] = Table S3D, SC 10 mg/kg, mouse, animal 2F005
[26] = female, Balb/c, mouse, plasma, ip, 10 mg/kg
[27] = female, Balb/c, mouse, plasma, ip, 30 mg/kg
[28] = female, Balb/c, mouse, plasma, sc, 10 mg/kg

Structure (SMILES): CC[C@H](C)[C@H](NC(=O)[C@H](CC(C)C)NC(=O)[C@H](CC(=O)O)NC(=O)CNC(=O)[C@H](CCCNC(=N)N)NC(=O)[C@@H](NC(=O)[C@H](Cc1ccccc1)NC(=O)[C@H](Cc1ccc(O)cc1)NC(=O)[C@@H]1CCC(=O)NCC(=O)NCC(=O)N[C@@H](CCCNC(=N)N)C(=O)NCC(=O)N[C@@H](Cc2c[nH]cn2)C(=O)N[C@@H](C(C)C)C(=O)N2CCC[C@H]2C(=O)N1)C(C)C)C(=O)N[C@@H](CO)C(=O)N[C@@H](Cc1ccccc1)C(=O)N[C@@H](Cc1ccc(O)cc1)C(=O)N[C@@H](CCCCNC(=O)CCOCCOCCNC(=O)CCCc1ccc(I)cc1)C(=O)O [lassotide 47] (GGRGHVPEYFVRGDLISFYK([PEG2-Butanoyl(4-(4-I-phenyl))])-OH; lactam N-8)
- EC50 [1]: > 45 µM
- Emax ([1]; read-out: Max Response): 2.94%
- remaining at 1 h, 2 μM [2]: 85.3%
- remaining at 3 h, 2 μM [2]: 84.8%
- IC50 [3]: > 45 µM
- Emax ([3]; read-out: Max Response): 13.4%
- IC50 [4]: > 45 µM
- Emax ([4]; read-out: Max Response): 2.92%
- EC50 [5]: > 45 µM
- Emax ([5]; read-out: Max Response): 3.52%
- improvement in t1/2 vs 36 ([6]; 30 mg/kg IP, mice): 9 fold
- increase in AUC vs 36 ([6]; 30 mg/kg IP, mice): 39 fold
- Cl ([6]; Mouse, 30 mg/kg IP, mean): 0.018 L/h/kg
- Vz ([6]; Mouse, 30 mg/kg IP, mean): 0.1 L/kg
- AUClast [6, 10]: 1750000
- CL/F [6, 10]: 0.271
- Cmax [6, 10]: 167000
- Tmax [6, 10]: 2.0
- Vz/F [6, 10]: 118
- t1/2 [6, 10]: 5.0
- AUClast [6, 11]: 1710000
- CL/F [6, 11]: 0.278
- Cmax [6, 11]: 182000
- Tmax [6, 11]: 2.0
- Vz/F [6, 11]: 128
- t1/2 [6, 11]: 5.3
- AUClast [6, 12]: 1270000
- CL/F [6, 12]: 0.356
- Cmax [6, 12]: 96500
- Tmax [6, 12]: 4.0
- Vz/F [6, 12]: 215
- t1/2 [6, 12]: 7.0
- AUClast [6, 13]: 1810000
- CL/F [6, 13]: 0.266
- Cmax [6, 13]: 151000
- Tmax [6, 13]: 2.0
- Vz/F [6, 13]: 109
- t1/2 [6, 13]: 4.7
- AUClast [6, 14]: 2150000
- CL/F [6, 14]: 0.219
- Cmax [6, 14]: 231000
- Tmax [6, 14]: 4.0
- Vz/F [6, 14]: 105
- t1/2 [6, 14]: 5.5
- Vz/F [6, 15]: 135
- t1/2 [6, 15]: 5.52 h
- AUCINF [6, 16]: 531 µg·h/mL
- AUClast [6, 16]: 517000 ng·h/mL
- CL/F [6, 16]: 0.314 mL/min/kg
- Cmax [6, 16]: 74800 ng/mL
- Tmax [6, 16]: 2.0 h
- Vz/F [6, 16]: 122 mL/kg
- t1/2 [6, 16]: 4.5 h
- AUCINF [6, 17]: 482 µg·h/mL
- AUClast [6, 17]: 468000 ng·h/mL
- CL/F [6, 17]: 0.346 mL/min/kg
- Cmax [6, 17]: 75600 ng/mL
- Tmax [6, 17]: 2.0 h
- Vz/F [6, 17]: 128 mL/kg
- t1/2 [6, 17]: 4.3 h
- AUCINF [6, 18]: 604 µg·h/mL
- AUClast [6, 18]: 587000 ng·h/mL
- CL/F [6, 18]: 0.276 mL/min/kg
- Cmax [6, 18]: 57500 ng/mL
- Tmax [6, 18]: 2.0 h
- Vz/F [6, 18]: 108 mL/kg
- t1/2 [6, 18]: 4.5 h
- AUCINF [6, 19]: 628 µg·h/mL
- AUClast [6, 19]: 603000 ng·h/mL
- CL/F [6, 19]: 0.265 mL/min/kg
- Cmax [6, 19]: 56300 ng/mL
- Tmax [6, 19]: 2.0 h
- Vz/F [6, 19]: 112 mL/kg
- t1/2 [6, 19]: 4.9 h
- AUCINF [6, 20]: 640 µg·h/mL
- AUClast [6, 20]: 631000 ng·h/mL
- CL/F [6, 20]: 0.260 mL/min/kg
- Cmax [6, 20]: 68400 ng/mL
- Tmax [6, 20]: 1.0 h
- Vz/F [6, 20]: 91.9 mL/kg
- t1/2 [6, 20]: 4.1 h
- AUCINF [6, 21]: 546 µg·h/mL
- AUClast [6, 21]: 528000 ng·h/mL
- CL/F [6, 21]: 0.305 mL/min/kg
- Cmax [6, 21]: 45700 ng/mL
- Tmax [6, 21]: 4.0 h
- Vz/F [6, 21]: 115 mL/kg
- t1/2 [6, 21]: 4.3 h
- AUCINF [6, 22]: 469 µg·h/mL
- AUClast [6, 22]: 455000 ng·h/mL
- CL/F [6, 22]: 0.355 mL/min/kg
- Cmax [6, 22]: 44700 ng/mL
- Tmax [6, 22]: 4.0 h
- Vz/F [6, 22]: 144 mL/kg
- t1/2 [6, 22]: 4.7 h
- AUCINF [6, 23]: 596 µg·h/mL
- AUClast [6, 23]: 567000 ng·h/mL
- CL/F [6, 23]: 0.280 mL/min/kg
- Cmax [6, 23]: 56800 ng/mL
- Tmax [6, 23]: 4.0 h
- Vz/F [6, 23]: 123 mL/kg
- t1/2 [6, 23]: 5.1 h
- AUCINF [6, 24]: 635 µg·h/mL
- AUClast [6, 24]: 609000 ng·h/mL
- CL/F [6, 24]: 0.262 mL/min/kg
- Cmax [6, 24]: 57900 ng/mL
- Tmax [6, 24]: 4.0 h
- Vz/F [6, 24]: 114 mL/kg
- t1/2 [6, 24]: 5.0 h
- AUCINF [6, 25]: 558 µg·h/mL
- AUClast [6, 25]: 541000 ng·h/mL
- CL/F [6, 25]: 0.299 mL/min/kg
- Cmax [6, 25]: 50000 ng/mL
- Tmax [6, 25]: 4.0 h
- Vz/F [6, 25]: 120 mL/kg
- t1/2 [6, 25]: 4.7 h
- t1/2 ([6]; Table S3D: IP 10 mg/kg, Mean N=5): 4.46 h
- AUC(0-inf) [6, 26]: 577 µg·h/mL
- AUC(0-t) [6, 26]: 561 µg·h/mL
- CL/F [6, 26]: 0.292 mL/min/kg
- Cmax [6, 26]: 66500 ng/mL
- Tmax [6, 26]: 1.8 h
- Vd/F [6, 26]: 0.113 L/kg
- half-life [6, 26]: 4.5 h
- AUC(0-t) [6, 27]: 1740 µg·h/mL
- CL/F [6, 27]: 0.278 mL/min/kg
- Cmax [6, 27]: 166000 ng/mL
- Tmax [6, 27]: 2.8 h
- AUC(0-inf) [6, 28]: 561 µg·h/mL
- AUC(0-t) [6, 28]: 540 µg·h/mL
- CL/F [6, 28]: 0.3 mL/min/kg
- Cmax [6, 28]: 51000 ng/mL
- Tmax [6, 28]: 4 h
- Vd/F [6, 28]: 0.123 L/kg
- half-life [6, 28]: 4.75 h
- EC50 [7]: > 45 µM
- Emax ([7]; read-out: Max Response): 1.85%
- IC50 [8]: > 45 µM
- Emax ([8]; read-out: Max Response): 30%
- EC50 [9]: > 45 µM
- Emax ([9]; read-out: Max Response): 1.93%
